What follows are compounds tested on Plasmodium falciparum (assay: GSK_TCMDC: Inhibition of Plasmodium falciparum 3D7 in whole erythrocytes, using parasite LDH activity as an index of growth.). Details: Plasmodium falciparum, 3D7.
Type: functional, organism-based

SMILES | XC50
Cc1nc(N)nc(N)c1-c1cccc(Cl)c1 | 1170 nM
CC(C)CCN1C(=O)C(NC(=O)Oc2ccccc2)C(=O)N(CC23CC4CC(CC(C4)C2)C3)c2ccccc21 (configuration not stated) | 752 nM
CCC1CN2CCc3cc(OC)c(OC)cc3C2CC1CC1NCCc2cc(OC)c(OC)cc21 (configuration not stated) | 145 nM
CN(CCN)Cc1cccc(-c2ccc(-c3nc4cc(C(F)(F)F)ccc4[nH]3)s2)c1 | 997 nM
CCOC(=O)C1=C(C)N=c2sc(=Cc3cc(Cl)ccc3O)c(=O)n2C1c1ccc(OC)cc1 (configuration not stated) | 746 nM
COc1cc(NC(=O)c2sc(-c3ccc(Cl)cc3)cc2NC(=O)c2cccc(N(C)C)c2)ccc1OCCN1CCCC1 | 709 nM
CCCN(CCC)CCOC(=O)C(OCC)(c1ccccc1)c1ccccc1 | 871 nM
COc1ccc2nccc(N3CCC(NCCNS(=O)(=O)c4ccc5c(c4)NC(=O)CS5)C3)c2n1 (configuration not stated) | 901 nM
COc1cc2nc(N3CCC(CNC(=O)c4ccc(NC(=O)c5ccc(Cl)cc5)cc4)CC3)nc(N)c2cc1OC | 264 nM
Cc1cc(Cl)ccc1NC(=O)Nc1ccc2nccc(N3CCN(C)CC3)c2c1 | 394 nM
CCOc1c(Br)cc(C)cc1CNCCCNc1nc2ccccc2[nH]1 | 666 nM
CCNc1cc(C(=O)N[C@@H](Cc2ccccc2)[C@H](O)CN[C@@H](C)c2ccccc2)cc(N2CCCC2=O)c1 | 666 nM
CCCCCCCCN1CCCN(C(=O)c2cccc(NC(=O)Nc3ccc4ccccc4c3)c2)CC1 | 762 nM
COc1ccc(NC(=O)Nc2cccc(-c3cccc(-c4nc5cc(F)ccc5[nH]4)c3)c2)cc1 | 171 nM
CS(=O)(=O)c1ccc(OCCCN(Cc2ccccc2C(F)(F)F)c2ccc(C#N)c(C(F)(F)F)c2)cc1 | 1020 nM
O=C(N[C@@H](CC1CCCCC1)C(=O)NC1CCCc2ccccc21)c1ccc(O)c(-c2cccc(C(F)(F)F)c2)c1 (some centres not stated) | 600 nM
CC(C)NCc1ccc(-c2ccc(NC(=O)c3cccc(C#N)c3)cc2)cc1 | 654 nM
Cc1c(Cl)cccc1S(=O)(=O)N1CCCCC(c2ccc(C(F)(F)F)cc2)=N1 | 788 nM
N=C(N)NC(=O)Nc1cc(Br)c(Cl)c(Br)c1 | 765 nM
CCCc1cc(OC)c(C[C@H]2c3cc(O)c(Cl)cc3CCN2C)cc1OC | 576 nM
Cc1nnsc1C(=O)Nc1cccc(-c2ccc(-c3nc4ccccc4[nH]3)s2)c1 | 885 nM
COc1ccc2nccc([C@@H](O)CN3CCC(NCc4cc5cccc(O)c5[nH]4)CC3)c2c1 | 836 nM
CCCNCc1ccc(-c2ccc(CN(CCOC)C(=O)c3ccccc3)cc2)nc1 | 876 nM
COc1ccccc1C(=O)Nc1ccc(Nc2nc(C)cc(N(C)C)n2)cc1 | 789 nM
Clc1ccc(C2CCN(CCCOc3ccc4c(c3)CCNCC4)CC2)cc1 | 754 nM

SMILES | XC50
CCc1cn2c3c(cc(C(=O)N[C@@H](Cc4ccccc4)[C@H](O)CNC4CC4)cc13)N(CC)S(=O)(=O)CC2 | 112 nM
O=C(Nc1cccc(CN2CCCN(Cc3ccc(O)cc3)CC2)c1)c1ccc(Br)cc1 | 800 nM
c1cc(CN2CCCCC2)cc(-c2ccc(-c3nc4ccccc4[nH]3)s2)c1 | 869 nM
Oc1ccccc1CNCc1ccc(-c2cnc(N3CCCC(c4ccccc4)C3)nc2)cc1 (configuration not stated) | 689 nM
CCN(CC)CCNc1ccnc2[nH]c3ccc(I)cc3c12 | 230 nM
CCN(CC)/C(=N\CCCCCC/N=C(\NC(=N)c1ccc(Cl)cc1)N(CC)CC)NC(=N)c1ccc(Cl)cc1 | 381 nM
Cc1cc(N[C@@H](CC(C)C)C(=O)NCCc2ccccc2)nc(NCCc2cccs2)n1 | 1200 nM
CC(C)(C)C1CC(=O)CC2C(=O)N(C3CCCCC3)C(=O)C21 (configuration not stated) | 421 nM
CCOc1ccc(C(=O)Nc2cc3c(c(C(F)(F)F)c2)CCNC3)cc1Cl | 1060 nM
COc1cc(Cc2cnc(N)nc2N)ccc1OCc1ccc(NC(C)=O)cc1 | 368 nM
O=C(/C=C/c1ccc(C(F)(F)F)cc1)NCCCCCN1CCN(C(=O)Nc2ccc(F)c(Cl)c2)CC1 | 1210 nM
Cc1cccc2nc(-c3ccc(-c4cccc(CNCCN(C)C)c4)cc3)[nH]c12 | 682 nM
Cc1cc(C)c(NC(=O)NC2CCN(CCCCCNC(=O)/C=C/c3ccc(Cl)c(Cl)c3)CC2)c(C)c1 | 797 nM
COc1ccc(Cl)cc1S(=O)(=O)Nc1cccc(CCN2CCC(N3CCCCC3)CC2)c1 | 704 nM
Clc1ccc2c(NCCCCCCCCNc3ccnc4cc(Cl)ccc34)ccnc2c1 | 482 nM
O=C(NC(c1ccccc1)c1ccc2cccnc2c1O)c1ccccc1 (configuration not stated) | 428 nM
O=C(C=Cc1ccc(F)cc1)NC1CCC(CCN2CCc3ccc(-c4cnccn4)cc3CC2)CC1 (configuration not stated) | 695 nM
CCNC(=O)NC1CCN(Cc2c(-c3cccs3)nc3ccccc3c2C(=O)N[C@@H](C)C2CCCCC2)CC1 | 91.3 nM
CC(Cc1ccc(OCCOc2ccccc2)cc1)NCC(O)c1cccc(Cl)c1 (configuration not stated) | 1040 nM
CC(C)N1CCN(C(CN2CCN(CCCOc3cccc(F)c3)CC2)c2ccc(F)cc2)CC1 (configuration not stated) | 912 nM
CCCN1CCN(CC(O)CNC(=O)Nc2ccc(Cl)cc2)CC1 (configuration not stated) | 96.9 nM
Fc1cccc(C=NNc2ccnc3cc(Cl)ccc23)c1 | 528 nM
COc1ccc(OCCCON2C(=N)N=C(N)NC2(C)C)cc1 | 3.2 nM
COCCN1CCC(C(=O)NCC(C)(C)c2nc(-c3ccc(Br)c(O)c3)c(-c3ccncc3)[nH]2)CC1 | 911 nM
O=C(NC1CC1c1ccccc1)N(CCCn1ccnc1)Cc1csc(-c2ccc(CNCc3ccccc3)cc2)n1 (configuration not stated) | 854 nM

SMILES | XC50
O=C(Nc1cccc(F)c1)NC1CCN(c2ccnc3cc(Cl)ccc23)CC1 | 609 nM
Cc1cc(O)c(CN2CCN(Cc3cccs3)CC2)cc1C(C)C | 716 nM
O=C(/C=C/c1ccc(Cl)c(Cl)c1)NC1CCC(CN2CCC(c3coc4ccccc34)CC2)CC1 (configuration not stated) | 826 nM
CCc1cccc(-n2c(=O)c3cccnc3n2CC(=O)NCc2ccccc2Cl)c1 | 741 nM
COc1ccc(-c2cccc(NC(=O)c3cccc(Cl)c3)c2)cc1CN1CCN(C)CC1 | 760 nM
COc1c(C2=CCN(CCCCNC(=O)c3ccc(-c4ccc(C#N)cc4)cc3)CC2)ccc2c1CCCC2 | 911 nM
Cc1c(Br)cc2nc(-c3ccc(C(=O)NC4CCN(Cc5ccccc5)CC4)cc3)[nH]c2c1C | 332 nM
O=C(Nc1ccc(Cl)cc1)c1ccc(CN2CCCN(Cc3cccc(O)c3)CC2)cc1 | 388 nM
COc1ccc(-c2cccc(NC(=O)c3cccc(C#N)c3)c2)cc1CN1CCCC1 | 748 nM
O=C(Nc1ccc(OC2CCN(Cc3ccsc3)CC2)c(Cl)c1)c1ccco1 | 784 nM
O=C(Nc1ccc(-c2nc3ccccc3[nH]2)cc1)c1ccc(-c2cccc([N+](=O)[O-])c2)o1 | 267 nM
COc1ccc(-c2ccc(NC(=O)c3ccc(C#N)cc3)cc2)cc1CN1CCC(O)CC1 | 581 nM
NCc1ccc(CNCc2ccc(-c3ccc(-c4nc5cc(C(F)(F)F)ccc5[nH]4)s3)cc2)cc1 | 157 nM
CN(C)c1ccc(-c2csc(C(=O)NC3CCN(CCC(C)(C)C)C3)c2)cc1 (configuration not stated) | 971 nM
Nc1ccc2c(N)c3ccccc3nc2c1 | 812 nM
O=C(/C=C/c1ccc(Cl)c(Cl)c1)NCCCCCCN1CCCN(C(=O)Nc2cc(Cl)cc(Cl)c2)CC1 | 780 nM
CC(CCON1C(N)=NC(N)=NC1(C)C)c1ccc(Cl)c(Cl)c1 (configuration not stated) | 3.2 nM
CCOc1cc(CC)ccc1C1CCN(CCN2CCC(CNC(=O)c3ccc(-c4ccc(C#N)cc4)cc3)CC2)CC1 | 708 nM
O=C(NC1CCC(CN2CCC(c3c[nH]c4ccccc34)CC2)CC1)c1cc(-c2cccc(Cl)c2)n(-c2ccc(Cl)cc2Cl)n1 (configuration not stated) | 1080 nM
O=C(Nc1cccc(C(F)(F)F)c1)NC1CCN(c2ccnc3cc(Cl)ccc23)CC1 | 289 nM
O=C(Cc1c[nH]cn1)Nc1ccc(-c2cccc(-c3nc4cc(C(F)(F)F)ccc4[nH]3)c2)cc1 | 742 nM
Cc1cc(N[C@@H](CC(C)C)C(=O)NCCCOC(C)C)nc(NCCc2ccc(F)cc2)n1 | 1250 nM
CC(=O)c1c(C)[nH]c(C(=O)Nc2ccc(-c3nc4ccc(C)cc4s3)cc2)c1C | 837 nM
O=C1NC(C(=O)Nc2ccccc2)C(c2ccccc2)S1 (configuration not stated) | 168 nM
CCN(CC)S(=O)(=O)c1ccc(C(=O)Oc2ccccc2N(Cc2ccc(OC)cc2)C2=NS(=O)(=O)c3ccccc32)cc1 | 585 nM

SMILES | XC50
Brc1cc(Br)c2c(c1)C(NCCCNC1CCNc3c(Br)cc(Br)cc31)CCN2 (configuration not stated) | 823 nM
COc1ccc(CNCc2cccc(-c3ccc(-c4nc5ccccc5[nH]4)cc3)c2)cc1 | 311 nM
CCCC1N=C(N)N=C(N)N1c1ccccc1 (configuration not stated) | 823 nM
O=C(NC1CCN(Cc2cccc(C(F)(F)F)c2)CC1)c1ccc(-c2cccc(C(F)(F)F)c2)s1 | 1010 nM
COc1ccc(CCC(C)(C)NCC(O)c2cccc(C(F)(F)F)c2)cc1 (configuration not stated) | 480 nM
Cc1ccc(Cn2nc(N3CCNCC3)ccc2=O)cc1NC(=O)Nc1ccc(-c2ccccc2)cc1 | 836 nM
O=c1ccccn1CCCC1CCCCN1 (configuration not stated) | 809 nM
CC(=O)C1(c2ccccc2)CCN(CCC2(c3ccc(Cl)c(Cl)c3)CN(C(=O)CC(C)C)CCO2)CC1 (configuration not stated) | 644 nM
CCC(CC)N1CCN(CC(=O)Nc2ccc([N+](=O)[O-])cc2C(=O)Nc2cccc(OC)c2)CC1 | 866 nM
CN(C)CCc1coc2ccc(C(=O)Nc3ccc(-c4ccc(O)cc4)cc3)cc12 | 1080 nM
CC(=O)Nc1ccc(CNCCc2ccc(NC(=O)c3cc(Cl)cc(Cl)c3)cc2)cc1 | 684 nM
Clc1cc(Cl)c2cc(CN[C@H]3CCC[C@@H]3CNc3nc4ccccc4[nH]3)[nH]c2c1 | 275 nM
COC(=O)C(=C(C)C)N1C(=O)[C@@H](NC(=O)OCc2ccccc2)[C@H]1SS[C@@H]1[C@H](NC(=O)OCc2ccccc2)C(=O)N1C(C(=O)OC)=C(C)C | 434 nM
O=C(/C=C/c1ccc([N+](=O)[O-])cc1)N1CCC(NS(=O)(=O)c2ccc(Br)cc2)CC1 | 1050 nM
O=C(Nc1ccc(OC2CCN(Cc3ccccc3)CC2)c(Cl)c1)c1ccsc1 | 900 nM
CCCc1ccc(NC(=O)c2ccc(CN3CCCN(CC4CCCCC4)CC3)cc2)cc1 | 524 nM
CC1(C)NC(N)=NC(=N)N1OCCCc1cc(Cl)c(Cl)cc1Cl | 3.2 nM
O=C(Nc1cccc(-c2cccc(-c3nc4cc(F)ccc4[nH]3)c2)c1)c1c[nH]cn1 | 459 nM
Fc1ccc2[nH]c(-c3ccc(-c4ccc(CNCc5ccccc5)cc4)cc3)nc2c1 | 284 nM
CCC1(CC)N=C(N)N=C(N)C1c1ccc(Cl)c(Cl)c1 (configuration not stated) | 380 nM
c1ccc(CN2CCC(NCc3ccc(-c4cccc(CNC5CCCC5)c4)cc3)CC2)cc1 | 339 nM
Cc1cccc2nc(-c3ccc(-c4ccc(NC(=O)Nc5ccsc5)cc4)cc3)[nH]c12 | 171 nM
